Reference: patent EP0435381B1, “Antipicornaviral pyridazinamines” (priority 1989, dated 1991)
In brackets after ≈: the same amount, converted by molar mass.

Assays:
[1] = test system: HRV-42,-45,-14,-70,-72 and -86; assay: Picornavirus Minimal Inhibitory Concentration Test (cytopathic effect reduction assay), second panel of rhinoviruses; assay type: cell-based; conditions: Human rhinovirus sp., HRV42; medium value of the IC50-values of all serotypes of the second panel; Ohio Hela cells, 3 to 5 days at 33°C; concentration protecting 50% of the cells from cytopathic effects; read-out: Med₂
Experimental: (§1) Example 24: Picornavirus Minimal Inhibitory Concentration Test,
(§2) The Minimal Inhibitory Concentration of the compounds of the present invention against the Human Rhinovirus strains (HRV) -2,-9,-14,-15,-29,-39,-41,-42,-45,-51, -59,-63,-70,-72,-85,-86 and -89 was determined by a standard cytopathic effect reduction assay as follows. To each of the ninety six (96) wells of a microtiter 96 well tissue culture plate there was added 60 µl of an Ohio Hela cell maintenance medium [Eagle's Basal medium supplemented with 5% Foetal Calf Serum (FCS)]. To two wells there was added 60 µl of an appropriate starting dilution of a compound of formula (I) and two-fold dilutions were made to cover a wide range of compound concentrations. Subsequently there were added 120 µl of an infectious solution of virus in Eagle's Basal Medium with 2% Hepes buffer, 2% FCS and 30 mM MgCl₂ to all wells except cell and compound controls. Said infectious virus solution has a TCID₅₀-value (Tissue Culture Infectious Dose) of about 100.
(§3) The TCID₅₀-value is the dose of viruses which initiates a cytopathic effect in 50% of the inoculated cells. 150 µl of the thus obtained virus-compound mixtures were then transferred to microtitre plates with subconfluent Ohio Hela Cells, grown in 100 µl of maintenance medium. Appropriate virus controls, cell controls and compound controls were included in each test. Plates were incubated for 3 to 5 days at 33°C in 5% CO₂ atmosphere. […] The IC₅₀-value for each virus-compound series was taken as the concentration in ng/ml that protected 50% of the cells from cytopathic effects with respect to the untreated controls. In the standard test procedure, the compounds were tested against two panels of rhinoviruses, a first panel consisting of serotypes HRV- 2,-29,-39,-85,-9,-15,-51, -59,-63,-89,-41 and the other panel consisting of HRV-42,-45,-14,-70,-72 and -86.
(§4) The IC₅₀-value for each rhinovirus serotype was determined, and the efficacy of each compound was determined in terms of the Med₁-value and Med₂-value, which is the medium value of the IC₅₀-value of all serotypes from the first and second panel respectively. The following table gives the testing results with the compounds of the invention.

[2] = test system: HRV- 2,-29,-39,-85,-9,-15,-51, -59,-63,-89,-41; assay: Picornavirus Minimal Inhibitory Concentration Test (cytopathic effect reduction assay), first panel of rhinoviruses; assay type: cell-based; conditions: Human rhinovirus sp., HeLa, read-out: Med₁
Experimental: as §1, §2, §3, §4

SMILES | IC50 [1] [µg/mL] | IC50 [2] [µg/mL]
CCc1nnc(-c2ccc(OCCC3CCN(c4ccc(C)nn4)CC3)cc2)o1 [compound 1] | 0.044 (≈ 0.112 µM) | 0.006 (≈ 0.0152 µM)
CCc1noc(-c2ccc(OCCC3CCN(c4ccc(C)nn4)CC3)cc2)n1 [compound 5, 3-[4-[2-[4-(3-ethyl-1,2,4-oxadiazol-5-yl)phenoxy]ethyl]-1-piperidinyl]-6-methylpyridazine] | 0.098 (≈ 0.249 µM) | 0.0029 (≈ 0.00737 µM)
CCc1nc(-c2ccc(OCCC3CCN(c4ccc(C)nn4)CC3)cc2)no1 [compound 6, 3-[4-[2-[4-(5-ethyl-1,2,4-oxadiazol-3-yl)phenoxy]ethyl]-1-piperidinyl]-6-methylpyridazine] | 0.047 (≈ 0.119 µM) | 0.0013 (≈ 0.0033 µM)
Cc1ccc(N2CCC(CCOc3ccc(-c4nc(C)no4)cc3)CC2)nn1 [compound 9] | 0.018 (≈ 0.0474 µM) | 0.004 (≈ 0.0105 µM)
CCCCc1noc(-c2ccc(OCCC3CCN(c4ccc(C)nn4)CC3)cc2)n1 [compound 11] | 0.175 (≈ 0.415 µM) | 0.006 (≈ 0.0142 µM)
CCCc1noc(-c2ccc(OCCC3CCN(c4ccc(C)nn4)CC3)cc2)n1 [compound 13] | 0.154 (≈ 0.378 µM) | 0.0068 (≈ 0.0167 µM)
CCc1noc(-c2ccc(OCC3CCN(c4ccc(C)nn4)CC3)cc2)n1 [compound 16] | 0.083 (≈ 0.219 µM) | 0.002 (≈ 0.00527 µM)
CCc1nc(-c2ccc(OCCC3CCN(c4ccc(C)nn4)CC3)cc2)co1 [compound 21, 3-[4-[2-[4-(2-ethyl-4-oxazolyl)phenoxy]ethyl]-1-piperidinyl]-6-methylpyridazine] | 0.02 (≈ 0.051 µM) | < 0.0005
CCc1csc(-c2ccc(OCCC3CCN(c4ccc(C)nn4)CC3)cc2)n1 [compound 22, 3-[4-[2-[4-(4-ethyl-2-thiazolyl)phenoxy]ethyl]-1-piperidinyl]-6-methylpyridazine] | 0.203 (≈ 0.497 µM) | 0.001 (≈ 0.00245 µM)
Cc1ccc(N2CCC(CCOc3ccc(-c4noc(C)n4)cc3)CC2)nn1 [compound 25] | 0.105 (≈ 0.277 µM) | 0.008 (≈ 0.0211 µM)
CCc1nc(-c2ccc(OCCC3CCN(c4ccc(C)nn4)CC3)cc2)cs1 [compound 26] | > 0.125 | 0.005 (≈ 0.0122 µM)
CCCc1nc(-c2ccc(OCCC3CCN(c4ccc(C)nn4)CC3)cc2)no1 [compound 27] | 0.122 (≈ 0.299 µM) | 0.006 (≈ 0.0147 µM)
CCCc1nc(-c2ccc(OCCC3CCN(c4ccc(C)nn4)CC3)cc2)co1 [compound 36] | > 0.125 | 0.007 (≈ 0.0172 µM)
CCc1noc(-c2ccc(OCCN3CCN(c4ccc(Cl)nn4)CC3)cc2)n1 [compound 38] | 0.072 (≈ 0.174 µM) | 0.0024 (≈ 0.00578 µM)
CCc1noc(-c2ccc(OCCC3CCN(c4ccc(Cl)nn4)C3)cc2)n1 (stereo not shown) [compound 44] | 0.166 (≈ 0.415 µM) | 0.014 (≈ 0.035 µM)
CCc1noc(-c2ccc(OCCC3CCN(c4ccc(C)nn4)C3)cc2)n1 (stereo not shown) [compound 45] | 0.065 (≈ 0.171 µM) | 0.006 (≈ 0.0158 µM)
CCc1nc(-c2ccc(OCCC3CCN(c4ccc(C)nn4)C3)cc2)no1 (stereo not shown) [compound 46] | 0.04 (≈ 0.105 µM) | 0.005 (≈ 0.0132 µM)
